{"source": "patent US12649709B2", "about": "“Naphthoquinone-based chalcone derivatives and uses thereof” (priority 2020, dated 2026)", "key": {"[1]": {"tested_on": "Autobioluminescent Human Epithelial Kidney cells (HEK-293)", "assay": "Cellular metabolic activity, autobioluminescent kidney cells", "format": "cell-based", "conditions": "FIG. 7A; Hematin:RLS3 1:1,000; 0.5 pM-5 nM RLS3; 14-hour period post-exposure; kidney cell model", "method": "(§1) Autobioluminescent Human Epithelial Kidney cells (HEK-293, 490 Biotech) and Human Liver cells (Hep-G2, 490 Biotech) and Human primary astrocytes (490 Biotech) were seeded at 10,000 kidney cells/well, or 50,000 liver cells/well, in 96-well tissue culture treated plates (Falcon) in growth media. The growth media consists of the following: DMEM (Hyclone), 10% heat-inactivated FBS (Gibco), 1% Sodium Pyruvate (HyClone), 1% antibiotic/antimyotic (Hyclone) and 100 μg G418/ml (Gibco). Cells were grown for 2 days prior to treatment with dimenadione derivative compounds. The media was aspirated and cells were washed with 1×PBS (Fisher, SH30256.01) and treated with serial dilutions ranging from 5 fM to 5 μM (1 mL/well) dimenadione derivative compounds. The treated cells were incubated at 37° C. and 5% CO2 for x hours. At each concentration, bioluminescence was measured with either a BMG Labtech clarioSTAR plate reader or an IVIS CCD camera system. Any changes in cell bioluminescence were recorded as photons/per well. […] The relative change in light output was measured between each treatment and the vehicle control at each timepoint. The amount of light being made is proportional to metabolic activity (as measured by FMNH2 availability, which provides the same information as a traditional ATP content assay (i.e., CellTiter Glo). […]"}, "[2]": {"tested_on": "Human Liver cells (Hep-G2)", "assay": "Cellular metabolic activity, autobioluminescent liver cells", "format": "cell-based", "conditions": "for concentration-dependent effect on cellular metabolism over time: 24 h", "method": "Autobioluminescent Human Epithelial Kidney cells (HEK-293, 490 Biotech) and Human Liver cells (Hep-G2, 490 Biotech) and Human primary astrocytes (490 Biotech) were seeded at 10,000 kidney cells/well, or 50,000 liver cells/well, in 96-well tissue culture treated plates (Falcon) in growth media. The growth media consists of the following: DMEM (Hyclone), 10% heat-inactivated FBS (Gibco), 1% Sodium Pyruvate (HyClone), 1% antibiotic/antimyotic (Hyclone) and 100 μg G418/ml (Gibco). Cells were grown for 2 days prior to treatment with dimenadione derivative compounds. […] The treated cells were incubated at 37° C. and 5% CO2 for x hours. At each concentration, bioluminescence was measured with either a BMG Labtech clarioSTAR plate reader or an IVIS CCD camera system. Any changes in cell bioluminescence were recorded as photons/per well. The replicates were averaged, and all conditions were normalized to background light detection (medium-only control wells). The vehicle-only controls were compared to the untreated controls to make sure there was not change in metabolic activity due to the solvent. All other treatments were then compared to the vehicle control. The relative change in light output was measured between each treatment and the vehicle control at each timepoint. The amount of light being made is proportional to metabolic activity (as measured by FMNH2 availability, which provides the same information as a traditional ATP content assay (i.e., CellTiter Glo).\n5 fM to 5 μM (10 μL/well) of individual compounds solubilized in DMSO were incubated with cells in 96-well plates. The reference compound was DMSO-only vehicle control, at a final concentration of 0.1% DMSO. Importantly maximally effective concentrations of the compound, in the mid-picomolar to mid-nanomolar range, increased metabolic activity by as much as 2.5-fold. This observation aligns with the core hypothesized mechanism of the compound which has been designed to integrate into the mitochondrial ETC and improve energy production in the form of ATP in mitochondria. Increased energy production is reflected in overall cellular metabolism of the cells."}, "primary astrocytes": {"tested_on": "primary astrocytes", "assay": "Cellular metabolic activity, autobioluminescent neuronal (astrocyte) cells", "format": "cell-based, murine", "conditions": "24 hour period", "method": "as §1"}, "[3]": {"conditions": "FIG. 8A, complexed with Hematin 1:1,000, 0.5 nM-5 μM, 24-hour period post-exposure, liver cells"}, "[4]": {"conditions": "complexed with hematin (FIG. 8A), liver cells"}, "[5]": {"conditions": "without hematin complexation (FIG. 8B), 1 pM-10 μM, liver cells"}}}
{"compound": "COc1cc(C)c(OC)c2ccccc12", "note": "[RLS3, 1,4-Dimethoxy-2-Methylnaphthalene]", "values": [{"measurement": "metabolic activity (bioluminescence) over time", "setting": "[1]", "result": "increase in metabolic activity over time"}, {"measurement": "metabolic activity (bioluminescence) over time", "setting": "[2]; FIG. 7B, Hematin:RLS3 1:1,000, 500 pM-5 μM RLS3, 14 h period post-exposure, liver cell model as printed", "result": "increase in metabolic activity over time"}, {"measurement": "metabolic activity (bioluminescence) over time", "setting": "[2]; [3]", "result": "increase in metabolic activity over time"}, {"measurement": "concentration-dependent effect on cellular metabolism over time", "setting": "[2]; [4]", "result": "seemed to show a concentration-dependent effect"}, {"measurement": "concentration-dependent effect on cellular metabolism over time", "setting": "[2]; [5]", "result": "did not"}]}
{"compound": "COc1c(C)c(C=O)c(OC)c2ccccc12", "note": "[RLS4, 1,4-Dimethoxy-3-Methyl-2-Naphthaldehyde]", "values": [{"measurement": "metabolic activity (bioluminescence) over time", "setting": "[2]; [3]", "result": "increase in metabolic activity over time"}, {"measurement": "concentration-dependent effect on cellular metabolism over time", "setting": "[2]; [4]", "result": "seemed to show a concentration-dependent effect"}, {"measurement": "concentration-dependent effect on cellular metabolism over time", "setting": "[2]; [5]", "result": "did not"}]}
{"compound": "COc1c(C)c(/C=C/C(=O)/C=C(O)/C=C/c2c(C)c(OC)c3ccccc3c2OC)c(OC)c2ccccc12", "note": "[RLS5, (1E,4Z,6E)-1,7-Bis(1,4-Dimethoxy-3-methylnaphthalen-2-yl)-5-Hydroxyhepta-1,4,6-trien-3-one]", "values": [{"measurement": "effect on cellular metabolism", "setting": "primary astrocytes; FIG. 9A, 100 pM and 1 nM RLS5 with Hematoporphyrin complexation (1:1000)", "result": "slight concentration dependent effect"}, {"measurement": "effect on cellular metabolism", "setting": "primary astrocytes; FIG. 9B, 100 pM and 1 nM RLS5 without Hematoporphyrin complexation", "result": "slight concentration dependent effect"}]}
